Columns and labels:
PRMT5 [1] = biological target: T1, PRMT5 (Homo sapiens, UniProt O14744); test: PRMT5 biochemical IC50 assay with MTA as cofactor; settings: PRMT5, MTA as cofactor; read-out: MTA IC50
T1 construct: purchased Viva (custom protein)

[2] = test system: HAP1 MTAP-deleted cell line; test: Viability assay, MTAP-deleted cell line; format: cell-based; settings: Homo sapiens, read-out: HAP1 MTAP deleted viability
Description: Table 1 additionally indicates IC50 values in a viability assay for the MTAP-deleted cell line (column 10), indicating the effect of treatment with compound on cell survival.

PRMT5 [3] = biological target: T1, PRMT5; test: PRMT5 biochemical IC50 assay with no cofactor; settings: PRMT5, no cofactor
Description: Table 1 indicates IC50 values (μM) against PRMT5 for exemplary compounds in the presence of SAM as cofactor, with no cofactor, and with MTA as cofactor, respectively (columns 4-6). […] Ki values can be calculated from the IC50 values as described in the Examples section. As detailed in the Examples section, for the assay performed in the presence of SAM, IC50=Ki×1.5 (Ki=IC50/1.5).

[4] = test system: HAP1 MTAP-deleted cell line; test: SDMA in-cell western assay, HAP1 MTAP-deleted; format: cell-based; settings: for IC50: Homo sapiens, HAP1, SDMA in-cell western, HAP1 MTAP-deleted; for MTAP intact/deleted ratio: SDMA in-cell western
How it was run: (§1)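 Compounds were tested in HAP1 cells differing only in MTAP status (endogenous expression versus null). Cellular SDMA levels were then measured by in-cell western, giving an IC50 in each background.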

PRMT5 [5] = biological target: T1, PRMT5; test: PRMT5 biochemical IC50 assay with SAM as cofactor; settings: PRMT5, SAM as cofactor; read-out: SAM IC50
[6] = test system: HAP1 MTAP-intact cell line; test: SDMA in-cell western assay, HAP1 MTAP-intact; format: cell-based; settings: Homo sapiens, HAP1, SDMA in-cell western, HAP1 MTAP-intact; read-out: MTAP HAP1 intact IC50
How it was run: as §1

[7] = HAP1, viability assay, MTAP-deleted cell line
[8] = read-out: HAP 1 MTAP deleted IC50
[9] = IC50 ratio HAP1 MTAP-intact / HAP1 MTAP-deleted
[10] = HAP1, viability, HAP1 MTAP-deleted cell line
[11] = read-out: No Cofactor/ rel IC50
[12] = HAP1, viability assay, HAP1 MTAP-deleted
[13] = read-out: HAP1 MTAP deleted IC50
[14] = IC50 ratio HAP1 MTAP-intact vs HAP1 MTAP-deleted

T1 sequence (O14744 whole entry): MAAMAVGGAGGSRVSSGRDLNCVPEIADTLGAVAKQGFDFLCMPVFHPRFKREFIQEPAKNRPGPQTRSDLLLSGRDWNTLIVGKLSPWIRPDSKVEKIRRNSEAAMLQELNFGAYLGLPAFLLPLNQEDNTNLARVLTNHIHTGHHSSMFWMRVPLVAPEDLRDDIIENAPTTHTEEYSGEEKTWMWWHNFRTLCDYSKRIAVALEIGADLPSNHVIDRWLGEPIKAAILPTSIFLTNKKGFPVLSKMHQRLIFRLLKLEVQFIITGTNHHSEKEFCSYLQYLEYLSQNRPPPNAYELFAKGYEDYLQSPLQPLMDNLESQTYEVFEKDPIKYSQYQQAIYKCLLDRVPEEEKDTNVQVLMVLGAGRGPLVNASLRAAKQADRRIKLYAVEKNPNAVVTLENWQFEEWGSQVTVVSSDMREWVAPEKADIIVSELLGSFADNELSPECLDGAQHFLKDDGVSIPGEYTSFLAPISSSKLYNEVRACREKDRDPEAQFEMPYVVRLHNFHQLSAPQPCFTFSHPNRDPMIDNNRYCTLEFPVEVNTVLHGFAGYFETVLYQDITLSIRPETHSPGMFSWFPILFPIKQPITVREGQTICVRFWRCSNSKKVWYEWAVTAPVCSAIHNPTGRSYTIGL
T1 sequence (Q9BQA1 whole entry partner): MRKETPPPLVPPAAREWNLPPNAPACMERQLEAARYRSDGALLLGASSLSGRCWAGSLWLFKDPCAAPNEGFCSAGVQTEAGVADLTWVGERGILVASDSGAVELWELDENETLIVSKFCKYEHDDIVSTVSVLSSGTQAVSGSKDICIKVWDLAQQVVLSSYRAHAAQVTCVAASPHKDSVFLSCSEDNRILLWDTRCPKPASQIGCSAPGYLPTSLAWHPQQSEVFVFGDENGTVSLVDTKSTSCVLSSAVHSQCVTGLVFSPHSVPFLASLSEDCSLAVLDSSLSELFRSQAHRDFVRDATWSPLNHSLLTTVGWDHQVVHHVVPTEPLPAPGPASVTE

| IC50 (PRMT5 [1]) [nM] | IC50 (PRMT5 [3]; read-out: No Cofactor/rel IC50) [nM] | IC50 [4, 8] [nM] | IC50 (PRMT5 [5]) [nM] | IC50 [6] [nM] | IC50 (PRMT5 [3]; [11]) [nM] | IC50 [4, 13] [nM] | Structure (SMILES) | IC50 [2, 7] [nM] | MTAP intact/deleted ratio [4, 9] | IC50 [2, 10] [nM] | IC50 [2, 12] [nM] | MTAP intact/deleted ratio [4, 14] |
| --- | --- | --- | --- | --- | --- | --- | --- | --- | --- | --- | --- | --- |
| < 50 | < 50 | < 100 | 50 to 500 | 100 to 1000 |  |  | COc1ncc(NC(=O)C(=O)N2C[C@@H](C)CC[C@@H]2c2cc3cn[nH]c3s2)cc1C(N)=O (single isomer, unassigned) [Compound 968, 2-methoxy-5-(2-(5-methyl-2-(1H-thieno[2,3-c]pyrazol-5-yl)piperidin-1-yl)-2-oxoacetamido)nicotinamide] | < 1000 | A (an IC50 ratio greater than or equal to 10 fold) |  |  |  |
| < 50 |  | < 100 | 50 to 500 | 100 to 1000 | > 500 |  | CCc1cc(NC(=O)C(=O)N2C[C@@H](C)CC[C@@H]2c2ccc(N3CCN(C)[C@H](C)C3)nc2)cnc1N (single isomer, unassigned) [Compound 1263] |  | A (an IC50 ratio greater than or equal to 10 fold) | < 1000 |  |  |
| < 50 | < 50 |  | 50 to 500 | 100 to 1000 |  | < 100 | Cc1nc2cc([C@H]3CC[C@H](C)CN3C(=O)C(=O)Nc3cnc(N)c(C)c3)ccc2s1 (single isomer, unassigned) [Compound 719] |  | A (an IC50 ratio greater than or equal to 10 fold) |  | < 1000 |  |
| < 50 |  | 100 to 1000 | 50 to 500 | > 1000 | 50 to 500 |  | Cc1cc(NC(=O)C(=O)N2C[C@H](C)CC[C@H]2C2CCC(C(C)(C)C)CC2)cnc1N (mixture of isomers) [Compound 145, rac-N-(6-amino-5-methyl-3-pyridyl)-2-[(2S,5R)-2-(4-tert-butylcyclohexyl)-5-methyl-1-piperidyl]-2-oxo-acetamide] | > 10000 | C (an IC50 ratio of less than 3 fold) |  |  |  |
| < 50 |  | < 100 | 50 to 500 | 100 to 1000 | 50 to 500 |  | CCc1cc(NC(=O)C(=O)N2C[C@@H](C)CC[C@@H]2c2ccc3nn([C@@H]4CCCN(C)C4)cc3c2)cnc1N (single isomer, unassigned) [Compound 1270] |  | A (an IC50 ratio greater than or equal to 10 fold) | < 1000 |  |  |
| 50 to 500 | 50 to 500 | 100 to 1000 | 50 to 500 | > 1000 |  |  | Cc1cc(NC(=O)C(=O)N2C[C@H](C)CC[C@H]2c2cnc3c(c2)CCC(=O)N3)cnc1N (racemic) [Compound 923, rac-N-(6-Amino-5-methyl-3-pyridyl)-2-[(2S,5R)-5-methyl-2-(7-oxo-6,8-dihydro-5H-1,8-naphthyridin-3-yl)-1-piperidyl]-2-oxo-acetamide] | 1000 to 10000 | A (an IC50 ratio greater than or equal to 10 fold) |  |  |  |
| < 50 | 50 to 500 |  | 50 to 500 | > 1000 |  | < 100 | C[C@H]1CN(C(=O)C(=O)Nc2cncc(C(N)=O)c2)[C@H](c2ccccc2)CC1(F)F (single isomer, unassigned) [Compound 457] | < 1000 | A (an IC50 ratio greater than or equal to 10 fold) |  |  |  |
| > 500 | > 500 | > 1000 | > 500 | > 1000 |  |  | Cc1cc(NC(=O)C(=O)N2C[C@H](C)CC[C@H]2c2cn[nH]c2)cnc1N (single isomer, unassigned) [Compound 969] | > 10000 | C (an IC50 ratio of less than 3 fold) |  |  |  |
| > 500 | > 500 |  | > 500 | > 1000 |  | > 1000 | CNc1ccc([C@H]2CC[C@H](C)CN2C(=O)C(=O)Nc2cnc(N)c(C)c2)cn1 (single isomer, unassigned) [Compound 876] |  | B (an IC50 ratio greater than or equal to 3 fold but lower than 10 fold) |  | > 10000 |  |
| 50 to 500 |  | > 1000 | > 500 | > 1000 | > 500 |  | Cc1cc(NC(=O)C(=O)N2CCCC[C@H]2c2ccccc2)cnc1N (single isomer, unassigned) [Compound 55] | > 10000 | C (an IC50 ratio of less than 3 fold) |  |  |  |
| < 50 | 50 to 500 |  | 50 to 500 | > 1000 |  | < 100 | Cc1cnn(-c2ccc([C@@H]3CC[C@@H](C)CN3C(=O)C(=O)Nc3cncc(C(N)=O)c3)cc2)c1 (racemic) [Compound 218, rac-5-{2-[(2R,5S)-5-Methyl-2-[4-(4-methyl-11H-pyrazol-1-yl)phenyl]piperidin-1-yl]-2-oxoacetamido}pyridine-3-carboxamide] | 1000 to 10000 | A (an IC50 ratio greater than or equal to 10 fold) |  |  |  |
| < 50 | < 50 |  | < 50 | 100 to 1000 |  | < 100 | C[C@H]1CC[C@H](c2ccc3cncn3c2)N(C(=O)C(=O)Nc2cnc(N)c(C3CC3)c2)C1 (single isomer, unassigned) [Compound 1205, N-(6-amino-5-cyclopropylpyridin-3-yl)-2-(2-(imidazo[1,5-a]pyridin-6-yl)-5-methylpiperidin-1-yl)-2-oxoacetamide] | < 1000 |  |  |  | A (an IC50 ratio greater than or equal to 10 fold) |
| < 50 | < 50 |  | < 50 | < 100 |  | < 100 | CCc1cc(NC(=O)C(=O)N2C[C@@H](C)CC[C@@H]2c2ccc3sc(CCN4CCCC4)nc3c2)cnc1N [Compound 1095, N-(6-amino-5-ethylpyridin-3-yl)-2-((2R,5S)-5-methyl-2-(2-(2-(pyrrolidin-1-yl)ethyl)benzo[d]thiazol-5-yl)piperidin-1-yl)-2-oxoacetamide] | < 1000 |  |  |  | A (an IC50 ratio greater than or equal to 10 fold) |
| < 50 | < 50 |  | 50 to 500 | 100 to 1000 |  | < 100 | C[C@H]1CC[C@H](c2cccc(Cl)c2)N(C(=O)C(=O)Nc2cnc(N)c(C3CC3)c2)C1 (single isomer, unassigned) [Compound 1119] | < 1000 |  |  |  | A (an IC50 ratio greater than or equal to 10 fold) |
| > 500 | > 500 | > 1000 | > 500 | > 1000 |  |  | CCc1cc(NC(=O)C(=O)N2C[C@H](C)CC[C@H]2c2ccc3sc(NC)nc3c2)cnc1N (single isomer, unassigned) [Compound 896] | > 10000 | B (an IC50 ratio greater than or equal to 3 fold but lower than 10 fold) |  |  |  |
| < 50 | < 50 | < 100 | 50 to 500 | 100 to 1000 |  |  | CCc1cc(NC(=O)C(=O)N2C[C@H](C)CC[C@H]2c2cc3[nH]ncc3s2)cnc1N (single isomer, unassigned) [Compound 955] | < 1000 | A (an IC50 ratio greater than or equal to 10 fold) |  |  |  |

Source: patent US11999727B2 (Tango Therapeutics, Inc., priority 2020, dated 2024)
